“And” between values parts separate entries of the source, which are not always exact repeats. Equal entries are not always repeated. Inconclusive results and toxic doses are left out. Rule as the data show it: active = T/C of 150% or more; inactive = T/C below 125%.
System: L1210 leukemia ip in BDF1 mice, survival T/C
Experiment: NCI In Vivo Anticancer Drug Screen. Data for tumor model L1210 Leukemia (intraperitoneal) in B6D2F1 (BDF1) mice
Settings: endpoint: mean survival time, higher = longer survival
How it was run: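 Survival endpoint. Drug-treated group vs vehicle group, expressed as T divided by C. Tumor passaged by transplantation.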

[1] = dose: 100.0 mg/kg/injection, schedule: Q01DX009 (ip), vehicle: saline with Tween-80
[2] = dose: 200.0 mg/kg/injection, schedule: Q01DX009 (ip), vehicle: saline with Tween-80
[3] = dose: 100.0 mg/kg/injection, schedule: Q01DX001 (ip), vehicle: saline
[4] = dose: 200.0 mg/kg/injection, schedule: Q01DX001 (ip), vehicle: saline
[5] = dose: 400.0 mg/kg/injection, schedule: Q01DX001 (ip), vehicle: saline
[6] = dose: 100.0 mg/kg/injection, schedule: Q04DX003 (ip), vehicle: Klucel (hydroxypropylcellulose) (HPC)
[7] = dose: 100.0 mg/kg/injection, schedule: Q01DX009 (ip), vehicle: Klucel (hydroxypropylcellulose) (HPC)
[8] = dose: 200.0 mg/kg/injection, schedule: Q01DX009 (ip), vehicle: Klucel (hydroxypropylcellulose) (HPC)
[9] = dose: 400.0 mg/kg/injection, schedule: Q01DX009 (ip), vehicle: Klucel (hydroxypropylcellulose) (HPC)
[10] = dose: 100.0 mg/kg/injection, schedule: Q04DX003 (ip), vehicle: saline
[11] = dose: 200.0 mg/kg/injection, schedule: Q04DX003 (ip), vehicle: saline
[12] = dose: 100.0 mg/kg/injection, schedule: Q04DX003 (ip), vehicle: saline with Tween-80
[13] = dose: 200.0 mg/kg/injection, schedule: Q04DX003 (ip), vehicle: saline with Tween-80
[14] = dose: 400.0 mg/kg/injection, schedule: Q04DX003 (ip), vehicle: saline with Tween-80
[15] = dose: 200.0 mg/kg/injection, schedule: Q01DX009 (ip), vehicle: saline
[16] = dose: 200.0 mg/kg/injection, schedule: Q04DX003 (ip), vehicle: Klucel (hydroxypropylcellulose) (HPC)
[17] = dose: 400.0 mg/kg/injection, schedule: Q04DX003 (ip), vehicle: Klucel (hydroxypropylcellulose) (HPC)
[18] = dose: 100.0 mg/kg/injection, schedule: Q01DX009 (ip), vehicle: saline
[19] = dose: 100.0 mg/kg/injection, schedule: Q01DX001 (ip), vehicle: saline with Tween-80
[20] = dose: 200.0 mg/kg/injection, schedule: Q01DX001 (ip), vehicle: saline with Tween-80
[21] = dose: 100.0 mg/kg/injection, schedule: Q01DX001 (ip), vehicle: Klucel (hydroxypropylcellulose) (HPC)
[22] = dose: 200.0 mg/kg/injection, schedule: Q01DX001 (ip), vehicle: Klucel (hydroxypropylcellulose) (HPC)
[23] = dose: 400.0 mg/kg/injection, schedule: Q01DX001 (ip), vehicle: Klucel (hydroxypropylcellulose) (HPC)
[24] = dose: 50.0 mg/kg/injection, schedule: Q01DX001 (ip), vehicle: saline with Tween-80

Measured: T/C

Cc1cc(C)c(NC(=S)NC(=O)c2ccccc2)cc1C
inactive: dose: 100.0 mg/kg/injection, schedule: Q04DX002 (ip), vehicle: gum acacia 88 % of control | dose: 200.0 mg/kg/injection, schedule: Q04DX002 (ip), vehicle: gum acacia 100 % of control | dose: 400.0 mg/kg/injection, schedule: Q04DX002 (ip), vehicle: gum acacia 96 % of control

Cc1ccc(-n2c(O)c(C=N)c(=O)[nH]c2=O)cc1
inactive: [1] 97 % of control | [2] 93 % of control

O=C(C=C(C(F)(F)F)C(F)(F)F)c1ccc(Br)cc1
inactive: dose: 25.0 mg/kg/injection, schedule: Q04DX003 (ip), vehicle: other 88 % of control | dose: 50.0 mg/kg/injection, schedule: Q04DX003 (ip), vehicle: other 94 % of control

COC(=O)c1ccccc1NC(=O)C(Br)C(Br)C(=O)O (stereo not drawn)
inactive: dose: 50.0 mg/kg/injection, schedule: Q01DX009 (ip), vehicle: saline with Tween-80 101 % of control | [1] 96 % of control | [2] 117 % of control

Cc1noc(NS(=O)(=O)c2ccc(N=Nc3ccc(N)nc3N)cc2)c1C
inactive: [3] 105 % of control | [4] 98 % of control | [5] 100 % of control

C=CCc1ccc(OCCOCCN(C)C2CCCCC2)c(OC)c1
inactive: [6] 90 % of control

S=C1CC2CCCC(C2)N1 (stereo not drawn)
inactive: dose: 10.0 mg/kg/injection, schedule: Q01DX001 (ip), vehicle: carboxymethylcellulose (CMC) 93 % of control | dose: 20.0 mg/kg/injection, schedule: Q01DX001 (ip), vehicle: carboxymethylcellulose (CMC) 93 % of control | dose: 80.0 mg/kg/injection, schedule: Q01DX001 (ip), vehicle: carboxymethylcellulose (CMC) 100 % of control

Nc1nccnc1Cl
inactive: dose: 75.0 mg/kg/injection, schedule: Q01DX001 (ip), vehicle: acetone 104 % of control | dose: 150.0 mg/kg/injection, schedule: Q01DX001 (ip), vehicle: acetone 104 % of control | dose: 300.0 mg/kg/injection, schedule: Q01DX001 (ip), vehicle: acetone 96 % of control

O=S(NOCc1ccccc1)c1ccc(Cl)cc1 (stereo not drawn)
inactive: [7] 93 % of control | [8] 102 % of control | [9] 93 % of control

CNC(C(=O)OCc1ccccc1)C(C)C (stereo not drawn)
inactive: [10] 112 % of control | [11] 99 % of control | dose: 400.0 mg/kg/injection, schedule: Q04DX003 (ip), vehicle: saline 100 % of control

O=C1NC(=O)C(c2ccc(C(F)(F)F)cc2)(c2ccc(C(F)(F)F)cc2)N1
inactive: [1] 98 % of control | [12] 92 % of control | [2] 90 % of control | [13] 96 % of control | dose: 400.0 mg/kg/injection, schedule: Q01DX009 (ip), vehicle: saline with Tween-80 86 % of control | [14] 89 % of control

CC(C)C1=NNC(=O)C1(C)C
inactive: [3] 105 % of control | [4] 108 % of control | [5] 108 % of control

CN(C)C1CCCC(OC(=O)c2ccccc2)C1 (stereo not drawn)
inactive: dose: 100.0 mg/kg/injection, schedule: Q04DX003 (ip), vehicle: saline sonified 98 % of control

COC(=O)C(CCC(=O)CN1C(=O)c2ccccc2C1=O)N1C(=O)c2ccccc2C1=O (stereo not drawn)
inactive: [12] 101 % of control | [13] 99 % of control | [14] 87 % of control

CC(=O)Nc1ccn(C2OC(CO)C(O)C2O)c(=O)n1 (stereo not drawn)
active: [15] 166 % of control | dose: 400.0 mg/kg/injection, schedule: Q01DX009 (ip), vehicle: saline 163 % of control

COc1ccc(OC)c(NC(=O)NCCCl)c1
inactive: [6] 101 % of control | [16] 98 % of control | [17] 87 % of control

CCC(=O)OC(CC=C(C)C)(c1ccccc1)C(C)CN(C)C (stereo not drawn)
inactive: [18] 100 % of control

CC(=O)NCC(N)=S
inactive: [3] 102 % of control | [4] 102 % of control | [5] 98 % of control

C=COCCCCCCCCCCCCCCCCCC
inactive: dose: 100.0 mg/kg/injection, schedule: Q01DX001 (ip), vehicle: other 95 % of control | dose: 200.0 mg/kg/injection, schedule: Q01DX001 (ip), vehicle: other 95 % of control | dose: 400.0 mg/kg/injection, schedule: Q01DX001 (ip), vehicle: other 96 % of control

CCCCC(=O)N/N=C/c1ccccc1C(=O)O
inactive: [3] 96 % of control | [4] 107 % of control | [5] 91 % of control

O=C(O)COc1ccc(Cl)cc1Cc1ccccc1
inactive: [19] 98 % of control | [20] 96 % of control | dose: 400.0 mg/kg/injection, schedule: Q01DX001 (ip), vehicle: saline with Tween-80 117 % of control

C=CCC1(/C(C)=C/C)C(=O)NC(=O)NC1=O
inactive: dose: 75.0 mg/kg/injection, schedule: Q01DX001 (ip), vehicle: saline 100 % of control | dose: 150.0 mg/kg/injection, schedule: Q01DX001 (ip), vehicle: saline 94 % of control

CCOC(=O)c1[nH]c2ccsc2c1CN(C)C
inactive: [6] 102 % of control | [16] 91 % of control | [17] 97 % of control

O=C1NC(=O)N(c2ccc(Cl)cc2)C1=O
inactive: dose: 100.0 mg/kg/injection, schedule: Q04DX002 (ip), vehicle: saline with Tween-80 111 % of control | dose: 200.0 mg/kg/injection, schedule: Q04DX002 (ip), vehicle: saline with Tween-80 90 % of control

COc1cc([N+](=O)[O-])c(Cl)cc1NS(=O)(=O)c1ccc(C)cc1
inactive: [21] 98 % of control | [22] 95 % of control | [23] 90 % of control

c1ccc(C[N+]23CC[N+](Cc4ccccc4)(CC2)CC3)cc1
inactive: dose: 50.0 mg/kg/injection, schedule: Q01DX009 (ip), vehicle: saline 107 % of control | [18] 111 % of control | [10] 97 % of control | [15] 114 % of control | [11] 100 % of control

CC1=CC2=C(C(=O)C1=O)C(C)CCC2C(C)C (stereo not drawn)
inactive: [3] 98 % of control | [4] 94 % of control

O=C(Nc1ccc(O)cc1)OCc1ccccc1
inactive: dose: 45.0 mg/kg/injection, schedule: Q04DX003 (ip), vehicle: Klucel (hydroxypropylcellulose) (HPC) 105 % of control | dose: 50.0 mg/kg/injection, schedule: Q01DX009 (ip), vehicle: Klucel (hydroxypropylcellulose) (HPC) 102 % of control | dose: 50.0 mg/kg/injection, schedule: Q04DX003 (ip), vehicle: Klucel (hydroxypropylcellulose) (HPC) 91 % of control | dose: 65.0 mg/kg/injection, schedule: Q04DX003 (ip), vehicle: Klucel (hydroxypropylcellulose) (HPC) 101 % of control | [21] 109 % of control | [7] 104 % of control | [6] 95 % of control | [22] 106 % of control | [8] 96 % of control | [16] 105 % of control and 106 % of control | [23] 97 % of control | [9] 94 % of control | [17] 98 % of control

COc1cc(C(=O)Nc2ccccc2F)cc(OC)c1OC
inactive: [7] 92 % of control | [8] 94 % of control | [9] 97 % of control

N#Cc1c(N)n(C2OC(CO)C(O)C2O)c2ncnc(N)c12 (stereo not drawn)
inactive: dose: 1.0 mg/kg/injection, schedule: Q01DX005 (ip), vehicle: saline 115 % of control | dose: 2.0 mg/kg/injection, schedule: Q01DX005 (ip), vehicle: saline 120 % of control

O=C1OC2CCCC1C2 (stereo not drawn)
inactive: [24] 104 % of control | [19] 100 % of control | [20] 100 % of control

C[n+]1ccn2ccccc21
inactive: [24] 104 % of control | [19] 109 % of control

CCCCC(=O)N/N=C/c1ccc(OC)c(O)c1
inactive: [3] 109 % of control | [4] 104 % of control | [5] 106 % of control

NS(=O)(=O)c1ccc(NC(=O)Nc2cccc(Cl)c2Cl)cc1
inactive: [7] 101 % of control | [8] 101 % of control | [9] 95 % of control

Reference: PubChem BioAssay AID248 (DTP/NCI, 2004)
